The source made the active and inactive calls. The calls are words filed in the database; no cut-off is given here.
Tests used:
Staphylococcus aureus [1] = test: (§1) Antibacterial activity against methicillin-resistant Staphylococcus aureus clinical isolate M12 infected in sepsis BALB/c mouse model assessed as decrease in degeneration of renal tubular epithelial cells at 12 mg/kg, ip administered consecutively at 12 hr-interval for 24 hrs measured after 24 hrs post-last dose by H and E staining based analysis; assay type: functional, organism-based; details: time 48.0 hrs
[2] = Toxicity in KM mouse infected with methicillin-resistant Staphylococcus aureus clinical isolate M12 assessed as damage in liver at 5 mg/kg, sc measured after 24 hrs by H and E staining based analysis; assay type: organism-based; details: in vivo
Staphylococcus aureus [3] = test: Antibacterial activity against methicillin-resistant Staphylococcus aureus clinical isolate M12 infected in sepsis BALB/c mouse model assessed as decrease in bacterial load in spleen at 12 mg/kg, ip administered consecutively at 12 hr-interval for 24 hrs measured after 24 hrs post-last dose; assay type: functional; details: time 48 hrs
[4] = Toxicity in KM mouse infected with methicillin-resistant Staphylococcus aureus clinical isolate M12 assessed as damage in kidney at 5 mg/kg, sc measured after 24 hrs by H and E staining based analysis; assay type: organism-based; details: in vivo
Staphylococcus aureus [5] = test: as §1, with “pathological change in white medulla” for “degeneration”, “spleen” for “renal tubular epithelial cells”; assay type: functional, organism-based; details: time 48.0 hrs
[6] = Toxicity in KM mouse infected with methicillin-resistant Staphylococcus aureus clinical isolate M12 assessed as damage in spleen at 5 mg/kg, sc measured after 24 hrs by H and E staining based analysis; assay type: organism-based; details: in vivo
[7] = Toxicity in KM mouse infected with methicillin-resistant Staphylococcus aureus clinical isolate M12 assessed as histopathological abnormality in kidney at 5 mg/kg, sc measured after 24 hrs by H and E staining based analysis; assay type: organism-based; details: in vivo
Staphylococcus aureus [8] = test: as §1, with “hepatocytes” for “renal tubular epithelial cells”; assay type: functional, organism-based; details: time 48.0 hrs
Staphylococcus aureus [9] = test: Antibacterial activity against methicillin-resistant Staphylococcus aureus clinical isolate M12 infected in sepsis BALB/c mouse model assessed as decrease in bacterial load in kidney at 12 mg/kg, ip administered consecutively at 12 hr-interval for 24 hrs measured after 24 hrs post-last dose; assay type: functional; details: time 48 hrs
Staphylococcus aureus [10] = test: Antibacterial activity against methicillin-resistant Staphylococcus aureus clinical isolate M12 infected in KM mouse assessed as decrease in bacterial load in skin tissues at 5 mg/kg, sc measured after 24 hrs by drop-plate counting method (reference value: 6.7); assay type: functional
Staphylococcus aureus [11] = test: Antibacterial activity against methicillin-resistant Staphylococcus aureus clinical isolate M12 infected in KM mouse assessed as decrease in erythematous pustules in intradermal tissues at 5 mg/kg, sc measured after 24 hrs; assay type: functional, organism-based
Staphylococcus aureus [12] = test: Antibacterial activity against methicillin-resistant Staphylococcus aureus clinical isolate M12 infected in KM mouse assessed as decrease in bacterial survival rate at 5 mg/kg, sc measured after 24 hrs by drop-plate counting method relative to control; assay type: functional
Staphylococcus aureus [13] = test: Antibacterial activity against methicillin-resistant Staphylococcus aureus clinical isolate M12 infected in KM mouse assessed as decrease in erythematous pustules at infected skin on back of animal at 5 mg/kg, sc measured after 24 hrs; assay type: functional, organism-based
[14] = Toxicity in KM mouse infected with methicillin-resistant Staphylococcus aureus clinical isolate M12 assessed as histopathological abnormality in lung at 5 mg/kg, sc measured after 24 hrs by H and E staining based analysis; assay type: organism-based; details: in vivo
[15] = Toxicity in KM mouse infected with methicillin-resistant Staphylococcus aureus clinical isolate M12 assessed as histopathological abnormality in spleen at 5 mg/kg, sc measured after 24 hrs by H and E staining based analysis; assay type: organism-based; details: in vivo
[16] = Toxicity in KM mouse infected with methicillin-resistant Staphylococcus aureus clinical isolate M12 assessed as damage in heart at 5 mg/kg, sc measured after 24 hrs by H and E staining based analysis; assay type: organism-based; details: in vivo
[17] = Toxicity in KM mouse infected with methicillin-resistant Staphylococcus aureus clinical isolate M12 assessed as damage in lung at 5 mg/kg, sc measured after 24 hrs by H and E staining based analysis; assay type: organism-based; details: in vivo
Staphylococcus aureus [18] = test: Antibacterial activity against methicillin-resistant Staphylococcus aureus clinical isolate M12 infected in KM mouse assessed as reduction in IL-6 level at infection site at 5 mg/kg, sc measured after 24 hrs by ELISA; assay type: functional
Staphylococcus aureus [19] = test: Antibacterial activity against methicillin-resistant Staphylococcus aureus clinical isolate M12 infected in KM mouse assessed as reduction in TNF-alpha level at infection site at 5 mg/kg, sc measured after 24 hrs by ELISA; assay type: functional
[20] = Toxicity in sepsis BALB/c mouse model infected with methicillin-resistant Staphylococcus aureus clinical isolate M12 assessed as survival rate at 12 mg/kg, ip administered consecutively at 12 hr-interval for 7 days measured after 24 hrs post-last dose; assay type: organism-based; details: in vivo, 192 h, time 8 day
Staphylococcus aureus [21] = test: as §1, with “necrosis in hepatocytes” for “degeneration of renal tubular epithelial cells”; assay type: functional, organism-based; details: time 48.0 hrs
[22] = Toxicity in KM mouse infected with methicillin-resistant Staphylococcus aureus clinical isolate M12 assessed as histopathological abnormality in heart at 5 mg/kg, sc measured after 24 hrs by H and E staining based analysis; assay type: organism-based; details: in vivo
[23] = Toxicity in KM mouse infected with methicillin-resistant Staphylococcus aureus clinical isolate M12 assessed as histopathological abnormality in liver at 5 mg/kg, sc measured after 24 hrs by H and E staining based analysis; assay type: organism-based; details: in vivo
Staphylococcus aureus [24] = test: as §1, with “pathological change in red medulla” for “degeneration”, “spleen” for “renal tubular epithelial cells”; assay type: functional, organism-based; details: time 48.0 hrs
Staphylococcus aureus [25] = test: Antibacterial activity against methicillin-resistant Staphylococcus aureus clinical isolate M12 infected in sepsis BALB/c mouse model assessed as decrease in bacterial load in liver at 12 mg/kg, ip administered consecutively at 12 hr-interval for 24 hrs measured after 24 hrs post-last dose; assay type: functional; details: time 48 hrs
Staphylococcus aureus [26] = test: as §1, with “necrosis in” for “degeneration of”; assay type: functional, organism-based; details: time 48.0 hrs

SMILES: CN[C@H](CC(C)C)C(=O)N[C@H]1C(=O)N[C@@H](CC(N)=O)C(=O)N[C@H]2C(=O)N[C@H]3C(=O)N[C@H](C(=O)N[C@H](C(=O)O)c4cc(O)cc(O)c4-c4cc3ccc4O)[C@H](O)c3ccc(c(Cl)c3)Oc3cc2cc(c3O[C@@H]2O[C@H](CO)[C@@H](O)[C@H](O)[C@H]2O[C@H]2C[C@](C)(N)[C@H](O)[C@H](C)O2)Oc2ccc(cc2Cl)[C@H]1O [VANCOMYCIN]
- Activity (Staphylococcus aureus [1]): Active
- Activity [2]: Non-Toxic
- Activity (Staphylococcus aureus [3]): 1.57 log10CFU/g
- Activity [4]: Non-Toxic
- Activity (Staphylococcus aureus [5]): Active
- Activity [6]: Non-Toxic
- Activity [7]: Non-Toxic
- Activity (Staphylococcus aureus [8]): Active
- Activity (Staphylococcus aureus [9]): 1.48 log10CFU/g
- Activity (Staphylococcus aureus [10]): 1.4 log10CFU/g
- Activity (Staphylococcus aureus [11]): inactive
- Activity (Staphylococcus aureus [12]): 93.33%
- Activity (Staphylococcus aureus [13]): inactive
- Activity [14]: Non-Toxic
- Activity [15]: Non-Toxic
- Activity [16]: Non-Toxic
- Activity [17]: Non-Toxic
- Activity (Staphylococcus aureus [18]): 56.5 pg/mL
- Activity (Staphylococcus aureus [19]): 96.3 pg/mL
- Survival [20]: 50%
- Activity (Staphylococcus aureus [21]): Active
- Activity [22]: Non-Toxic
- Activity [23]: Non-Toxic
- Activity (Staphylococcus aureus [24]): Active
- Activity (Staphylococcus aureus [25]): 1.62 log10CFU/g
- Activity (Staphylococcus aureus [26]): Active
